# From PubChem BioAssay (NCI)
#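 Exposure lasted 48 hours, with cells grown in 96-well plates and compounds tested at five concentrations. TGI: concentration producing complete growth inhibition.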
# Tests used:
# Experiment in all cases: NCI tumour cell line growth inhibition, 48 h
# A549 NSCLC = tested on: A549 NSCLC
# ACHN renal = tested on: ACHN renal
# CCRF-CEM leukemia = tested on: CCRF-CEM leukemia
# COLO 205 colon = tested on: COLO 205 colon
# DMS 273 small cell lung = tested on: DMS 273 small cell lung
# EKVX NSCLC = tested on: EKVX NSCLC
# HCC-2998 colon = tested on: HCC-2998 colon
# HCT-116 colon = tested on: HCT-116 colon
# HCT-15 colon = tested on: HCT-15 colon
# HL-60(TB) leukemia = tested on: HL-60(TB) leukemia
# HOP-18 NSCLC = tested on: HOP-18 NSCLC
# HOP-62 NSCLC = tested on: HOP-62 NSCLC
# HOP-92 NSCLC = tested on: HOP-92 NSCLC
# HT29 colon = tested on: HT29 colon
# KM20L2 colon = tested on: KM20L2 colon
# LOX IMVI melanoma = tested on: LOX IMVI melanoma
# LXFL 529 NSCLC = tested on: LXFL 529 NSCLC
# M19-MEL melanoma = tested on: M19-MEL melanoma
# MALME-3M melanoma = tested on: MALME-3M melanoma
# MOLT-4 leukemia = tested on: MOLT-4 leukemia
# NCI-H226 lung = tested on: NCI-H226 lung
# NCI-H23 lung = tested on: NCI-H23 lung
# NCI-H460 lung = tested on: NCI-H460 lung
# OVCAR-3 ovarian = tested on: OVCAR-3 ovarian
# OVCAR-5 ovarian = tested on: OVCAR-5 ovarian
# OVCAR-8 ovarian = tested on: OVCAR-8 ovarian
# RPMI-8226 leukemia = tested on: RPMI-8226 leukemia
# RXF 393 renal = tested on: RXF 393 renal
# RXF-631 renal = tested on: RXF-631 renal
# SF-268 CNS = tested on: SF-268 CNS
# SF-295 CNS = tested on: SF-295 CNS
# SF-539 CNS = tested on: SF-539 CNS
# SK-MEL-2 melanoma = tested on: SK-MEL-2 melanoma
# SK-MEL-28 melanoma = tested on: SK-MEL-28 melanoma
# SK-OV-3 ovarian = tested on: SK-OV-3 ovarian
# SN12C renal = tested on: SN12C renal
# SNB-19 CNS = tested on: SNB-19 CNS
# SNB-75 CNS = tested on: SNB-75 CNS
# SNB-78 CNS = tested on: SNB-78 CNS
# SR leukemia = tested on: SR leukemia
# SW-620 colon = tested on: SW-620 colon
# TK-10 renal = tested on: TK-10 renal
# U251 CNS = tested on: U251 CNS
# UACC-257 melanoma = tested on: UACC-257 melanoma
# UACC-62 melanoma = tested on: UACC-62 melanoma
# UO-31 renal = tested on: UO-31 renal
# XF 498 CNS = tested on: XF 498 CNS
# 786-0 renal = tested on: 786-0 renal
# A498 renal = tested on: A498 renal
# CAKI-1 renal = tested on: CAKI-1 renal
# DLD-1 colon = tested on: DLD-1 colon
# IGROV1 ovarian = tested on: IGROV1 ovarian
# K-562 leukemia = tested on: K-562 leukemia
# KM12 colon = tested on: KM12 colon
# M14 melanoma = tested on: M14 melanoma
# OVCAR-4 ovarian = tested on: OVCAR-4 ovarian
# SK-MEL-5 melanoma = tested on: SK-MEL-5 melanoma
# DMS 114 small cell lung = tested on: DMS 114 small cell lung
# NCI-H522 lung = tested on: NCI-H522 lung
compound,measurement,setting,value
COc1ccc(CNc2nc3ccc(C(F)(F)F)cc3nc2-c2ccccc2)cc1OC,TGI,A549 NSCLC,> 100 µM
same,TGI,ACHN renal,> 100 µM
same,TGI,CCRF-CEM leukemia,> 100 µM
same,TGI,COLO 205 colon,> 100 µM
same,TGI,DMS 273 small cell lung,> 100 µM
same,TGI,EKVX NSCLC,> 100 µM
same,TGI,HCC-2998 colon,> 100 µM
same,TGI,HCT-116 colon,> 100 µM
same,TGI,HCT-15 colon,> 100 µM
same,TGI,HL-60(TB) leukemia,> 100 µM
same,TGI,HOP-18 NSCLC,> 100 µM
same,TGI,HOP-62 NSCLC,> 100 µM
same,TGI,HOP-92 NSCLC,15.5 µM
same,TGI,HT29 colon,> 100 µM
same,TGI,KM20L2 colon,> 100 µM
same,TGI,LOX IMVI melanoma,> 100 µM
same,TGI,LXFL 529 NSCLC,> 100 µM
same,TGI,M19-MEL melanoma,> 100 µM
same,TGI,MALME-3M melanoma,> 100 µM
same,TGI,MOLT-4 leukemia,> 100 µM
same,TGI,NCI-H226 lung,> 100 µM
same,TGI,NCI-H23 lung,> 100 µM
same,TGI,NCI-H460 lung,> 100 µM
same,TGI,OVCAR-3 ovarian,> 100 µM
same,TGI,OVCAR-5 ovarian,> 100 µM
same,TGI,OVCAR-8 ovarian,> 100 µM
same,TGI,RPMI-8226 leukemia,> 100 µM
same,TGI,RXF 393 renal,> 100 µM
same,TGI,RXF-631 renal,> 100 µM
same,TGI,SF-268 CNS,> 100 µM
same,TGI,SF-295 CNS,> 100 µM
same,TGI,SF-539 CNS,> 100 µM
same,TGI,SK-MEL-2 melanoma,> 100 µM
same,TGI,SK-MEL-28 melanoma,> 100 µM
same,TGI,SK-OV-3 ovarian,> 100 µM
same,TGI,SN12C renal,> 100 µM
same,TGI,SNB-19 CNS,> 100 µM
same,TGI,SNB-75 CNS,> 100 µM
same,TGI,SNB-78 CNS,> 100 µM
same,TGI,SR leukemia,> 100 µM
same,TGI,SW-620 colon,> 100 µM
same,TGI,TK-10 renal,> 100 µM
same,TGI,U251 CNS,> 100 µM
same,TGI,UACC-257 melanoma,> 100 µM
same,TGI,UACC-62 melanoma,> 100 µM
same,TGI,UO-31 renal,> 100 µM
same,TGI,XF 498 CNS,> 100 µM
CC1=CCCC(OC(N)=O)C1 (stereo not given),TGI,786-0 renal,> 100 µM
same,TGI,A498 renal,> 100 µM
same,TGI,A549 NSCLC,> 100 µM
same,TGI,ACHN renal,> 100 µM
same,TGI,CAKI-1 renal,> 100 µM
same,TGI,CCRF-CEM leukemia,> 100 µM
same,TGI,COLO 205 colon,> 100 µM
same,TGI,DLD-1 colon,> 100 µM
same,TGI,DMS 273 small cell lung,> 100 µM
same,TGI,EKVX NSCLC,> 100 µM
same,TGI,HCC-2998 colon,> 100 µM
same,TGI,HCT-116 colon,> 100 µM
same,TGI,HCT-15 colon,> 100 µM
same,TGI,HL-60(TB) leukemia,> 100 µM
same,TGI,HOP-18 NSCLC,> 100 µM
same,TGI,HOP-62 NSCLC,> 100 µM
same,TGI,HOP-92 NSCLC,> 100 µM
same,TGI,HT29 colon,> 100 µM
same,TGI,IGROV1 ovarian,> 100 µM
same,TGI,K-562 leukemia,> 100 µM
same,TGI,KM12 colon,> 100 µM
same,TGI,KM20L2 colon,> 100 µM
same,TGI,LOX IMVI melanoma,> 100 µM
same,TGI,LXFL 529 NSCLC,> 100 µM
same,TGI,M14 melanoma,> 100 µM
same,TGI,M19-MEL melanoma,> 100 µM
same,TGI,MALME-3M melanoma,> 100 µM
same,TGI,MOLT-4 leukemia,> 100 µM
same,TGI,NCI-H23 lung,> 100 µM
same,TGI,NCI-H460 lung,> 100 µM
same,TGI,OVCAR-3 ovarian,> 100 µM
same,TGI,OVCAR-4 ovarian,> 100 µM
same,TGI,OVCAR-5 ovarian,> 100 µM
same,TGI,OVCAR-8 ovarian,> 100 µM
same,TGI,RPMI-8226 leukemia,> 100 µM
same,TGI,RXF 393 renal,> 100 µM
same,TGI,RXF-631 renal,> 100 µM
same,TGI,SF-268 CNS,> 100 µM
same,TGI,SF-295 CNS,> 100 µM
same,TGI,SF-539 CNS,> 100 µM
same,TGI,SK-MEL-2 melanoma,> 100 µM
same,TGI,SK-MEL-5 melanoma,> 100 µM
same,TGI,SK-OV-3 ovarian,> 100 µM
same,TGI,SN12C renal,> 100 µM
same,TGI,SNB-19 CNS,> 100 µM
same,TGI,SNB-75 CNS,> 100 µM
same,TGI,SNB-78 CNS,> 100 µM
same,TGI,SW-620 colon,> 100 µM
same,TGI,TK-10 renal,> 100 µM
same,TGI,U251 CNS,> 100 µM
same,TGI,UACC-257 melanoma,> 100 µM
same,TGI,UACC-62 melanoma,> 100 µM
same,TGI,UO-31 renal,> 100 µM
same,TGI,XF 498 CNS,> 100 µM
C#CC(C)(C)Oc1cc(O)c2c(=O)c3ccccc3n(C)c2c1,TGI,786-0 renal,> 100 µM
same,TGI,A498 renal,> 100 µM
same,TGI,A549 NSCLC,> 100 µM
same,TGI,ACHN renal,> 100 µM
same,TGI,CAKI-1 renal,> 100 µM
same,TGI,CCRF-CEM leukemia,> 100 µM
same,TGI,COLO 205 colon,> 100 µM
same,TGI,DMS 114 small cell lung,> 100 µM
same,TGI,DMS 273 small cell lung,> 100 µM
same,TGI,EKVX NSCLC,> 100 µM
same,TGI,HCC-2998 colon,> 100 µM
same,TGI,HCT-116 colon,> 100 µM
same,TGI,HCT-15 colon,> 100 µM
same,TGI,HL-60(TB) leukemia,> 100 µM
same,TGI,HOP-18 NSCLC,> 100 µM
same,TGI,HOP-62 NSCLC,> 100 µM
same,TGI,HOP-92 NSCLC,> 100 µM
same,TGI,HT29 colon,> 100 µM
same,TGI,IGROV1 ovarian,> 100 µM
same,TGI,K-562 leukemia,> 100 µM
same,TGI,KM20L2 colon,> 100 µM
same,TGI,LOX IMVI melanoma,44.3 µM
same,TGI,LXFL 529 NSCLC,> 100 µM
same,TGI,M14 melanoma,> 100 µM
same,TGI,MALME-3M melanoma,> 100 µM
same,TGI,MOLT-4 leukemia,> 100 µM
same,TGI,NCI-H226 lung,> 100 µM
same,TGI,NCI-H23 lung,> 100 µM
same,TGI,NCI-H460 lung,> 100 µM
same,TGI,NCI-H522 lung,> 100 µM
same,TGI,OVCAR-3 ovarian,> 100 µM
same,TGI,OVCAR-4 ovarian,> 100 µM
same,TGI,OVCAR-5 ovarian,> 100 µM
same,TGI,OVCAR-8 ovarian,> 100 µM
same,TGI,RXF 393 renal,> 100 µM
same,TGI,RXF-631 renal,> 100 µM
same,TGI,SF-268 CNS,> 100 µM
same,TGI,SF-295 CNS,> 100 µM
same,TGI,SF-539 CNS,58.1 µM
same,TGI,SK-MEL-2 melanoma,> 100 µM
same,TGI,SK-MEL-28 melanoma,> 100 µM
same,TGI,SK-MEL-5 melanoma,> 100 µM
same,TGI,SK-OV-3 ovarian,> 100 µM
same,TGI,SN12C renal,> 100 µM
same,TGI,SNB-19 CNS,> 100 µM
same,TGI,SNB-75 CNS,> 100 µM
same,TGI,SNB-78 CNS,> 100 µM
same,TGI,SR leukemia,35.7 µM
same,TGI,TK-10 renal,> 100 µM
same,TGI,U251 CNS,> 100 µM
same,TGI,UACC-257 melanoma,> 100 µM
same,TGI,UACC-62 melanoma,> 100 µM
same,TGI,UO-31 renal,> 100 µM
same,TGI,XF 498 CNS,> 100 µM
